This note sets out measurements from patent publication US20240083981A1, “TREATMENT OF HERPES SIMPLEX VIRUS INFECTION” (priority 2022, published 2024).

In one experiment the test system is clinical HSV-1 isolates. Put plainly: Inhibition of clinically derived HSV-1 isolates in Vero cells, cell viability assay. The experiment is classed as cell-based. Particulars: US origin. The procedure: Four American isolates (HSV-1 Bethesda and HSV-1 RH; HSV-2 Bethesda and HSV-2 RH), 3 Asian isolates (HSV-2 JA-1, HSV-2 JA-2, and HSV-2 JA-3), and 4 isolates with ACV resistance (poly-mut, C7, C8, and IC) were investigated via a cell viability assay. […] Then, the mixtures were aliquoted into a 96-well plate seeded with Vero cells. After incubation for 48 hours at 37° C., the plate was washed with PBS once, and the viable cells were incubated with 1% Alamar blue for 1 hour.

A further experiment has as its system HSV-1 RE TKnull. Description: microbe, parasite or virus in culture. The following applies: Human alphaherpesvirus 1, Vero, 24 h.
In the next experiment the test system is HSV-2 333 TKnull. Put plainly: microbe, parasite or virus in culture. The following applies: Human alphaherpesvirus 2, Vero, 24 h.
The mark [1] stands for this setting: Human alphaherpesvirus 1, Vero, HSV-1 RH.

For orientation: IC90 means the point of the concentration-response curve where the effect stands at 90%. A high value points to weaker potency. Usually IC50 stands for the concentration that gives 50% inhibition. High values mean weaker potency, low ones greater potency. Take `Nc1nc2c(ncn2COCCO)c(=O)[nH]1` [ACV, acyclovir]: the IC90 with clinical HSV-1 isolates (HSV-1 Bethesda) and with clinical HSV-1 isolates (setting [1]) was greater than 35.5 µM throughout. Besides, the IC50 in the experiment with clinical HSV-1 isolates (Human alphaherpesvirus 1, Vero, HSV-1 Bethesda) is 3.62 µM; in the experiment on clinical HSV-1 isolates (setting [1]) it was 4.73 µM; with HSV-1 RE TKnull, greater than 0.1 µM; in the experiment on HSV-2 333 TKnull, greater than 0.1 µM.
